Reference: patent publication US20150320773A1, “TREATMENT OF INFLAMMATION” (Vascular Biogenics Ltd., priority 2011, published 2015)

Columns and labels:
THP-1 cells [1] = assay: Trans-well chemotaxis assay of THP-1 cells; type: cell-based, human
Protocol: For chemo-attraction of monocytes, RANTES (100 ng/ml), MIP-1α (50 ng/ml) or MCP-1 (50 ng/ml) were dissolved in 0.5% fetal bovine serum(FBS)/RPMI-1640 medium and placed at the lower chamber of QCM™ 24-well migration assay plate (Corning-Costar; 5 μm pores). For chemo-attraction of CD4+ cells, 0.5% FBS/RPMI-1640 solution containing RANTES (100 ng/ml) and SDF-1α (50 ng/ml) was used, using the same plate setting. Migration assay was conducted by seeding 300,000 treated cells in the upper chamber, followed by incubation of 3-4 hours. Subsequently, the number of cells which migrated to the medium in the lower compartment was determined by FACS.
Data are mean f SD from 4 experiments in triplicates, normalized to untreated cells. **, p<0.001.

12-LO (12-lipoxygenase) = 12-LO (12-lipoxygenase) (Homo sapiens, UniProt P18054); conditions: concentrations of up to 10 μM; data not shown
[2] = tested on: kinases, phosphatases, ion channels/ransporters; assay: Selectivity: effect on activity of additional proteins
CCR5 = CCR5 (Homo sapiens, UniProt P51681); conditions: escalating doses
Protocol: (§1) Analyses were performed by Millipore GPCR Profiler Service, by measuring intracellular calcium signal in real time using FLIPR^TETRA device. […] Antagonist percentage inhibition was referenced to EC80 control wells for each tested GPCR.

CCR2B = CCR2B (Homo sapiens, UniProt P41597); conditions: escalating doses
Protocol: as §1

chemokine receptors = assay: GPCR activation assay, agonist mode (calcium flux); type: cell-based; conditions: 12.5 μM VB-201; ChemiScreen stable cell lines
TLR5 [3] = target: TLR5 (Homo sapiens, UniProt O60602); conditions: human monocytes; flagellin; 1.7, 8.5 or 17 μM
RAW 264.7 macrophages = conditions: 0, 8.5 or 17 μM VB-201; streptavidin-APC
Text: Cells were washed and LPS binding was detected using streptavidin-APC.
CD14 is known to bind to lipopolysaccharide (LPS).

[4] = tested on: G-coupled protein receprors (GPRC); assay: Selectivity: effect on activity of additional proteins
Lp-PLA2 = Lp-PLA2 (Homo sapiens, UniProt Q13093); conditions: concentrations of up to 40 μM; data not shown
human monocytes = assay: Cell viability assay (MTS) of human monocytes; type: cell-based; conditions: 16 hours, doses of 1-10 j±g/ml
TNFα receptor = conditions: concentrations of up to 17 μM; data not shown
[5] = target: TLR2:TLR1 dimer, TLR2:TLR6 dimer (Mus musculus, UniProt Q9QUN7); conditions: 1.7, 8.5 or 17 μM
TLR2 = TLR2 (Homo sapiens, UniProt O60603); conditions: human monocytes; BO-VB201; anti-human TLR2 blocking antibody
Protocol: Human monocytes were incubated for 15 min with anti-human TLR2 blocking antibody. […] Streptavidin-APC (1:200) was used to detect binding.

THP-1 cells [6] = assay: AKT and ERK pathway activation in THP-1 cells, Western blot; conditions: 8.5 μM VB-201, 20 min
Protocol: THP-1 cells were incubated for 16 hrs in RPMI-1640 medium supplemented with 0.5% FBS and 1% Pen/Strep/Glutamine to reduce basal signaling readouts. […] Stimulation with 100 μM GTP-γ-s, an activator of G-proteins, was performed for 2, 5 or 15 minutes. Cells were harvested and analyzed by SDS-PAGE. […] Total ERK1/2 levels serve as loading control.
The THP1 or HEK293 cell lines were grown in medium supplemented with 0.5% FBS and 1% Pen/Strep/Glutamine. […] Cells were washed twice and harvested with lysis buffer and analyzed by SDS-PAGE. […] Alpha Tubulin levels serve as loading control.
THP-1 cells were incubated for 16 hrs in RPMI-1640 medium supplemented with 0.5% FBS and 1% Pen/Strep/Glutamine to reduce basal signaling readouts. […] Stimulation with 30 μg/ml of CRP, activator the CD32 and CD64 receptors, was performed for 2, 5 or 15 min. Cells were harvested and analyzed by SDS-PAGE. […] Total ERK1/2 levels serve as loading control.

ApoE KO mice = assay: Atherosclerosis study in ApoE KO mice
Protocol: Dosing was performed once a day, for 8 weeks (n=1-12/group). […] Lesion area was calculated using a computerized analysis method (Image Pro Plus software, V. 4.5.1.29, Medical Cybernetics Corporation). Aorta lesion area was determined using the Image-Pro Plus software, which measured the staining area covered by Sudan IV stain adhering to the lesioned tissue. Lesion size in the aorta was measured and the percentage of lesioned area was calculated relative to the size of the entire aorta.
Immunostaining was performed on frozen sections which were fixed with cold acetone and blocked with 4% normal rabbit serum/PBS (Vector Lab). Following incubation with Rat anti-mouse CD68 (Serotec NCA1957; 1:250) and anti-Rat biotinylated antibody (Vector Lab AB-4001; 1:200), signal was developed using Vectastain ABC-Alkaline phosphatase kit and Vector Red Substrate (Vector Lab). Mayer's Hematoxylin was used for counterstaining.

[7] = Plasma concentration of VB-201 (Liquid Chromatography-Tandem Mass Spectrometry); type: in vivo, mouse; conditions: oral
Protocol: In this model, injection of thioglycollate to the peritoneal cavity induces a “sterile” inflammatory response recruiting peripheral monocytes to the peritoneum, where they differentiate into macrophages (Li, Y. M., et al., J. Immunol. Methods. 1997; 201:183-188). […] Upon sacrifice, the number and identity of the cells accumulating in the peritoneum was determined by FACS, and plasma samples were taken for quantification by Liquid Chromatography-Tandem Mass Spectrometry. Three days after thioglycollate injection 95% of the cells in the peritoneum were macrophages (F4/80 positive, GR-1 negative cells) (FIG. 26B).

TLR5 [8] = target: TLR5 (Mus musculus, UniProt Q9JLF7); conditions: mouse BMDCs; flagellin; 1.7, 8.5 or 17 μM
[9] = tested on: MCF-7 human breast cancer cells; assay: Wound-healing 'scratch' assay; type: cell-based; conditions: data not shown
IL-1 receptor (IL-1R) = IL-1 receptor (IL-1R) (Mus musculus, UniProt P13504); conditions: mouse BMDCs; 1.7, 8.5 or 17 μM
granulocytes = assay: Phagocytosis assay (whole blood), granulocytes; type: cell-based, human; conditions: VB-201 doses of 5 or 10 µg/ml
Protocol: Phagocytosis assays were conducted using pHrodo™ Phagocytosis Particle Labeling Kit (Invitrogen) according to the manufacturer protocol. […] Then, pHrodo dye-labeled E. coli bacteria were mixed with the treated blood samples, in 20:1 ratio of pHrodo™ particles to phagocytosing cells and incubated for additional 15 minutes. Each sample was analyzed both at 4° C. (no phagocytosis, negative control) and 37° C. Following incubation, red blood cells were removed by lysis and the samples were washed 3 times with wash buffer. For gating on specific subpopulations, cells were labeled with anti-CD14-FITC (monocytes and granulocytes marker, BD Biosciences) and anti-CD66b-PerCP/Cy5.5 (granulocytes marker, BioLegend) antibodies. pHrodo fluorescence intensity was analyzed by FACS.
To this end, a phagocytosis assay was performed on whole blood from healthy donors, and the capacity of leukocyte subsets to phagocytose PE-labeled E. Coli particles was tested in presence or absence of VB-201. As a negative control, we used blood without bacterial particles, while a positive control included blood and labeled-bacterial particles incubated at 37° C. Cells were then stained with CD14 and CD66b antibodies to differentiate between monocytes and granulocytes and were analyzed by FACS.

HMG-CoA reductase = HMG-CoA reductase (Homo sapiens, UniProt P04035); conditions: concentrations of up to 10 μM; data not shown
Chain of HMG-CoA reductase (P04035 whole entry, species assumed): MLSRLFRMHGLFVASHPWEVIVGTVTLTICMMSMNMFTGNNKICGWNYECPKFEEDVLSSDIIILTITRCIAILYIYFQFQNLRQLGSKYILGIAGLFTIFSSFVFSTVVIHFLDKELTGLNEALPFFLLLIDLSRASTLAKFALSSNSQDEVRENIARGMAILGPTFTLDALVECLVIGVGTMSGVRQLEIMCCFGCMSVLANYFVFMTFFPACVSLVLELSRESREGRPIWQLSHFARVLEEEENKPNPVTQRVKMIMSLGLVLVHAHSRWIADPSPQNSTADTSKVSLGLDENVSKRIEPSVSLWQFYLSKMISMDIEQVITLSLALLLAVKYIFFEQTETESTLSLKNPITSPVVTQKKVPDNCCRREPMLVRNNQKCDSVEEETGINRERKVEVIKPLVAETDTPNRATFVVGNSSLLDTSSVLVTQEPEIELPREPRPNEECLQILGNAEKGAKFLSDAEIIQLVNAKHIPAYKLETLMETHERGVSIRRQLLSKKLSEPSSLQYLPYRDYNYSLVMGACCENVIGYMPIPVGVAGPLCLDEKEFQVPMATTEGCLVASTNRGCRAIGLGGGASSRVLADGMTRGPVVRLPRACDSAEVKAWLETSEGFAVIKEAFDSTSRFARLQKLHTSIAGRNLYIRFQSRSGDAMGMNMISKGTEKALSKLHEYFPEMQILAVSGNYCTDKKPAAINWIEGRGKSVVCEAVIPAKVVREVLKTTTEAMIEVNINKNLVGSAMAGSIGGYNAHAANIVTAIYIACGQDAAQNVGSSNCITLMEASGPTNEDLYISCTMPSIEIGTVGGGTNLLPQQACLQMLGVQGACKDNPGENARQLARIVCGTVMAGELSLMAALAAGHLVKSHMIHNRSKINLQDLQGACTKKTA

Chain of TLR2:TLR1 dimer, TLR2:TLR6 dimer (Q9QUN7 25-784): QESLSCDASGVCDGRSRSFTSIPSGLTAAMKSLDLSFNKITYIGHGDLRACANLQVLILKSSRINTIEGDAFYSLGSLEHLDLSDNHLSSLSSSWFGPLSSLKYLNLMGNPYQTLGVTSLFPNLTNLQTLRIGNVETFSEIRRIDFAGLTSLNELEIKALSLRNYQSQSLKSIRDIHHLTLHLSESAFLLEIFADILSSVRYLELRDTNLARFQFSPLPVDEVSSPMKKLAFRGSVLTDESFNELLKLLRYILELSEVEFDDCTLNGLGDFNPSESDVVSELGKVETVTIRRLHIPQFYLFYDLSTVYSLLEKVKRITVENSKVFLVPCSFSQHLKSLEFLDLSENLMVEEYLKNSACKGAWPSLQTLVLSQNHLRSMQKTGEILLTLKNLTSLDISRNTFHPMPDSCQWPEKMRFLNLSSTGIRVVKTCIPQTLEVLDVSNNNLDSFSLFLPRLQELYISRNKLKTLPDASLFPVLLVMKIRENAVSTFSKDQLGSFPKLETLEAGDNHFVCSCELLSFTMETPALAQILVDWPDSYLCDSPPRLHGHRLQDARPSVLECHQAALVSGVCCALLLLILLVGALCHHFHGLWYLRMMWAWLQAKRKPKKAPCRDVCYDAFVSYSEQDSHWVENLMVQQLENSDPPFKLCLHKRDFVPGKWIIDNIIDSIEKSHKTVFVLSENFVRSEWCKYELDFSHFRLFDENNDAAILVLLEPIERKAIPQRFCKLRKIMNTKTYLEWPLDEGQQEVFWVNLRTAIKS
Chain of IL-1 receptor (IL-1R) (P13504 20-576): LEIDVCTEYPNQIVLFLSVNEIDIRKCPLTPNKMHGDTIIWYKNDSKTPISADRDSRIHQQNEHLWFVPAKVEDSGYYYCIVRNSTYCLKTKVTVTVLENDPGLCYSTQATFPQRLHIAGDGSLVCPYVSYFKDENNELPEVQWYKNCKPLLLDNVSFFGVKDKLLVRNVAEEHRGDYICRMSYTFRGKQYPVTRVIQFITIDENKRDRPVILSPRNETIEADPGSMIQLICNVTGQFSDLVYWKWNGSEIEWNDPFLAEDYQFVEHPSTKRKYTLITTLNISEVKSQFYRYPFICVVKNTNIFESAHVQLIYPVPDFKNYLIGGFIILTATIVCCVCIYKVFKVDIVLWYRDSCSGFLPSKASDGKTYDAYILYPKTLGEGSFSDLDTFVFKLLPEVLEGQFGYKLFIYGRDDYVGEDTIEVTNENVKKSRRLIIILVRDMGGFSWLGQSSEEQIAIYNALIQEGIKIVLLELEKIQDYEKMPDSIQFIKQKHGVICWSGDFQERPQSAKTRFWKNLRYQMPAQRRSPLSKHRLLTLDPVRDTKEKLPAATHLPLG
Chain of Lp-PLA2 (Q13093 22-441): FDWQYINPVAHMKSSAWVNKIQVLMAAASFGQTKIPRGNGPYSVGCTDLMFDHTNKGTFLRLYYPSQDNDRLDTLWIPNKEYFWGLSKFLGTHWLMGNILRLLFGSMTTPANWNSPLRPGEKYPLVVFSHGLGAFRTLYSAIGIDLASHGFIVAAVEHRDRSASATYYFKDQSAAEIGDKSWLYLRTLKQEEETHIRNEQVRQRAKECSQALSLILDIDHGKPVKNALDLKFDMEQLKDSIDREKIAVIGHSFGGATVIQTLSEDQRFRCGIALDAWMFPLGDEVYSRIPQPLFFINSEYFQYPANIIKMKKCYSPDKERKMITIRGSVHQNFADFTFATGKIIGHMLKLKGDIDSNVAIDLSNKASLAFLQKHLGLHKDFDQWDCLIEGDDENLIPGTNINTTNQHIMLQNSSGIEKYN
Chain of TLR5 (Mus musculus, UniProt Q9JLF7) (Q9JLF7 27-859): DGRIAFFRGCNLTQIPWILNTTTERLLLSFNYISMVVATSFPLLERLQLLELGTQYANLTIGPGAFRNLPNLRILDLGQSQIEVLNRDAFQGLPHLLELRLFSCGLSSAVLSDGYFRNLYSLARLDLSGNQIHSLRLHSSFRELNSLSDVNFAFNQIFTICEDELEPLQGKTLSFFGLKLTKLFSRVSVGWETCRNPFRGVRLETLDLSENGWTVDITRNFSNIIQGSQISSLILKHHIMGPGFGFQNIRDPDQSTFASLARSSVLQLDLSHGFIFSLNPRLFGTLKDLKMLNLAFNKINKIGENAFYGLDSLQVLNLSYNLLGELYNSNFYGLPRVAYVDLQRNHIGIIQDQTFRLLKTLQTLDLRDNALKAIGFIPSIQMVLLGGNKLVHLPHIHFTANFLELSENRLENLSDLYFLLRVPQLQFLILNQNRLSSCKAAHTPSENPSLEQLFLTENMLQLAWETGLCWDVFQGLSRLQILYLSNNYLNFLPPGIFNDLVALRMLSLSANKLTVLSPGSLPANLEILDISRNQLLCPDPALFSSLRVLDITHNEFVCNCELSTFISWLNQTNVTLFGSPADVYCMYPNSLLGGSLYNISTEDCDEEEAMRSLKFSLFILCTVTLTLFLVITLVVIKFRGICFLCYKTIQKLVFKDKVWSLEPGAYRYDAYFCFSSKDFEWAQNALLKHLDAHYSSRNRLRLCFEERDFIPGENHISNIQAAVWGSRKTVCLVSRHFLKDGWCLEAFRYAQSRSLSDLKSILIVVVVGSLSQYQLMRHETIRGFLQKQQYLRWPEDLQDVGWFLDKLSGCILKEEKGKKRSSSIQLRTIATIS
Chain of CCR5 (P51681 whole entry): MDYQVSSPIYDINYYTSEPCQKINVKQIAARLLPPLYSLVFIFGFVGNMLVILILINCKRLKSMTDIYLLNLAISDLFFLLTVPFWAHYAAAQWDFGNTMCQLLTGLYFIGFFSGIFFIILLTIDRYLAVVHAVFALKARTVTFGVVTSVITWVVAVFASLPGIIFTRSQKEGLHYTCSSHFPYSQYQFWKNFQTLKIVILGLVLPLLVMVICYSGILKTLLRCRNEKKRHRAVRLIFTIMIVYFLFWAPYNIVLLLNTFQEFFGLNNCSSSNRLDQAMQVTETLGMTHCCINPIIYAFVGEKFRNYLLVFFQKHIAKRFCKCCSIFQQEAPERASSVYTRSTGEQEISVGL
Chain of TLR5 (Homo sapiens, UniProt O60602) (O60602 21-858): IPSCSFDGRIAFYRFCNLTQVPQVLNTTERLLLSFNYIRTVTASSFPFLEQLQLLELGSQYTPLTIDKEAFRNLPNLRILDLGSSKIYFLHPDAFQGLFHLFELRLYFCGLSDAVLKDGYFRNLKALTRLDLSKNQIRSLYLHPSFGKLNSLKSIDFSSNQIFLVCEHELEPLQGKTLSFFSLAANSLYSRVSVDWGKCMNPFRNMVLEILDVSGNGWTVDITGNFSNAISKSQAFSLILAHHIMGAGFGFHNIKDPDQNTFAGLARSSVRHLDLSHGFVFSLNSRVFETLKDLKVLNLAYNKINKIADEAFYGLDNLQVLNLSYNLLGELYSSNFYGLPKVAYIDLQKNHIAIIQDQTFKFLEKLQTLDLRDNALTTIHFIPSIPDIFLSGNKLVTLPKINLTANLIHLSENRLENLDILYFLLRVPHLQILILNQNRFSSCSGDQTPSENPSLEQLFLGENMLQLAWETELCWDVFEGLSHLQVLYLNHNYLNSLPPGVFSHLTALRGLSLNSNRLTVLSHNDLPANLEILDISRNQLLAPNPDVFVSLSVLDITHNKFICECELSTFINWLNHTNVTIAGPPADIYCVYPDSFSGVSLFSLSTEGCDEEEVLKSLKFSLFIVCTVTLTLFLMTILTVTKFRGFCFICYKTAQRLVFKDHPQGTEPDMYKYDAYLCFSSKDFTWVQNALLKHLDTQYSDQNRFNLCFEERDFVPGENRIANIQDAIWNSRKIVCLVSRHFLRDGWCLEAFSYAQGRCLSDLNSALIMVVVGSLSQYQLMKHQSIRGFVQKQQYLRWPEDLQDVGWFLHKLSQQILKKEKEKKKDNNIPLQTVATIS
Chain of CCR2B (P41597 1-360 isoform P41597-2): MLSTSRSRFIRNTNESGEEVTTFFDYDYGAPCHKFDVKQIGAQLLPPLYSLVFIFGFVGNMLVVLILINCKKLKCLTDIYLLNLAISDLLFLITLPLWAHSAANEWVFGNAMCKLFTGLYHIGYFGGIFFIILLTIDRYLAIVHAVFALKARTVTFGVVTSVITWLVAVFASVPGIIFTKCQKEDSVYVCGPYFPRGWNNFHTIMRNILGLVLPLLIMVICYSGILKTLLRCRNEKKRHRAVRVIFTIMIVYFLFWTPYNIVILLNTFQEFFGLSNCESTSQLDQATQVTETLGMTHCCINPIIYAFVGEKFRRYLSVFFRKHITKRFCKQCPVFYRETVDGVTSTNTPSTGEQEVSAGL

CCCCCCCCCCCCCCCCOC[C@H](COP(=O)([O-])OCC[N+](C)(C)C)OCCCCC(=O)O [VB-201, (R)-1-hexadecyl-2-(4′-carboxyl)butyl-sn-glycero-3-phosphocholine]
effect of Wortmannin, Rapamycin and GW5074 on chemotaxis of THP-1 cells with added VB-201 (THP-1 cells [1]; VB-201 8.5 μM): further enhanced
in vitro migration of THP-1 cells (THP-1 cells [1]; pretreatment 30 minutes, 2 or 5 μg/ml): significantly inhibited in vitro migration of THP-1 cells in a dose-dependent manner
inhibition of 12-LO (12-lipoxygenase) (12-LO (12-lipoxygenase)): No inhibition
inhibition of kinases, phosphatases, ion channels/ransporters [2]: No inhibition
antagonistic effect against CCR5 (CCR5): did not induce an antagonistic effect
antagonistic effect against CCR2B (CCR2B): did not induce an antagonistic effect
activation relative to positive controls (agonist, Ca++ flux) (chemokine receptors): less than 5%
activation of p38, ERK1/2 and the NFκB pathway following TLR5 activation (TLR5 [3]): no apparent effect
binding of biotinylated LPS to macrophages (RAW 264.7 macrophages): inhibited binding of biotinylated LPS to macrophages in a dose dependent manner
agonistic or antagonistic effect on G-coupled protein receprors (GPRC) [4]: no agonistic or antagonistic effect
inhibition of Lp-PLA2 (Lp-PLA2): No inhibition
monocyte viability (human monocytes): no effect on monocyte viability
inhibition of TNFα receptor (TNFα receptor): No inhibition
p38 phosphorylation following activation of dimers of TLR2 ([5]; mouse BMDCs, Pam3CSK4, PGN): inhibited p^38 phosphorylation in a dose-dependent manner
activation of p38, ERK1/2 and the NFκB pathway following activation of TLR2:TLR1 dimer ([5]; mouse peritoneal macrophages, Pam3CSK4): inhibited activation of p38, ERK1/2 and the NFκB pathway in a dose-dependent manner
binding to cell surface expressed TLR2 (TLR2): Binds Cell Surface Expressed TLR2
phospho-AKT(Ser473) levels (THP-1 cells [6]; 30 μg/ml CRP): reduction in phospho-ERK1/2 and phospho-AKT(Ser473) levels
phospho-ERK1/2 levels (THP-1 cells [6]; 30 μg/ml CRP): reduction in phospho-ERK1/2 and phospho-AKT(Ser473) levels
phospho-AKT(Ser473) levels (THP-1 cells [6]; 100 μM GTP-γ-s): reduction in phospho-ERK1/2 and phospho-AKT (Ser473) levels
phospho-ERK1/2 levels (THP-1 cells [6]; 100 μM GTP-γ-s): reduction in phospho-ERK1/2 and phospho-AKT (Ser473) levels
EGF-induced ERK1/2 phosphorylation (THP-1 cells [6]; EGF 200 ng/ml): inhibition of ERK1/2 phosphorylation in the THP-1 monocytic cell line
plaque formation relative to the PBS control (ApoE KO mice; 1.5 mg/kg, daily oral gavage, 8 weeks): significantly reduced plaque formation
fatty streaks (ApoE KO mice; daily oral gavage, 8 weeks, 0.15 or 1.5 mg/kg): markedly reduced
macrophage accumulation in the aortic sinus lesion (anti-CD68) (ApoE KO mice; relative to controls): reduced
VB-201 in mice plasma ([7]; 0.4 mg/kg): 0.8 ± 0.3 µmol/L
VB-201 plasma level ([7]; 4 mg/kg): 8.5 ± 1.5 µmol/L
p38 phosphorylation following activation of TLR5 (TLR5 [8]): no apparent effect
cell migration in wound-healing scratch assay [9]: no effect on cell migration
p38 phosphorylation following activation of IL-1 receptor (IL-1 receptor (IL-1R)): no apparent effect
granulocyte phagocytosis (granulocytes): no VB-201 effect was seen
inhibition of HMG-CoA reductase (HMG-CoA reductase): No inhibition
